The text below walks through data of ChEMBL document CHEMBL5726197, “Oxoazetidine derivatives, process for the preparation thereof and use thereof in human medicine and in cosmetics” (2017).

For one assay, the target named is Melanocortin receptor 4 (Homo sapiens, UniProt P32245). Description: (§1) Transactivation Assay: In the presence of an activator (agonist), the melanocortin receptor will activate the cAMP pathway which, via the CRE-Luc vector, will result in the synthesis of luciferase. After the addition of a lysis buffer containing a luminescent substrate for luciferase, it will be possible to measure the luminescence proportional to the degree of activation or of inhibition of the receptor. The products are solubilized at 10 mM in DMSO. They are tested in the form of dose-response at a final DMSO concentration of 0.1%. The range comprising 10 points and one zero begins at 10 μM with 4-fold dilutions. For testing agonists, the products are tested alone. For determining the behaviour of antagonists, the products of interest are tested in the presence of 1 nM NDP-MSH (reference agonist). The cells are seeded at a rate of 5000 cells per well (384 well plate) in serum-free DMEM medium, and incubated overnight at 37° C., 5% CO2.The products and the reference ligand (NDP-MSH) are added the following day, and the plates are again incubated for 6 h at 37° C., 5% CO2. After the addition of lysis buffer containing luciferin, the plates are read on a Top-Count instrument. The results are standardized as % activity using the 100% (cells+NDP-MSH at 10 nM) and 0% (cells alone) controls. An EC50 is calculated for each product using the XLFit software. The results are given in nM. […].
Chain of Melanocortin receptor 4 (P32245 whole entry): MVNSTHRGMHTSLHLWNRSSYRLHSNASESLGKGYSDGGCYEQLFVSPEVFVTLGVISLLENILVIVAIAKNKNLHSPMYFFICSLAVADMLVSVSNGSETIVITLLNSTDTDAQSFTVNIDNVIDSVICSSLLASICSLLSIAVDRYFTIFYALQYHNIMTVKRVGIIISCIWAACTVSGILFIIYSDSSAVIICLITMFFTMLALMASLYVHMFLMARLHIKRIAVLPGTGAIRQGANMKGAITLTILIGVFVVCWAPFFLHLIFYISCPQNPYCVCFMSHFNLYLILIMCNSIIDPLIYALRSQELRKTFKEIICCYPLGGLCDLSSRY

In assay [1] the target is Melanocyte-stimulating hormone receptor (Homo sapiens, UniProt Q01726). Described as §1.
Chain of Melanocyte-stimulating hormone receptor (Q01726 whole entry): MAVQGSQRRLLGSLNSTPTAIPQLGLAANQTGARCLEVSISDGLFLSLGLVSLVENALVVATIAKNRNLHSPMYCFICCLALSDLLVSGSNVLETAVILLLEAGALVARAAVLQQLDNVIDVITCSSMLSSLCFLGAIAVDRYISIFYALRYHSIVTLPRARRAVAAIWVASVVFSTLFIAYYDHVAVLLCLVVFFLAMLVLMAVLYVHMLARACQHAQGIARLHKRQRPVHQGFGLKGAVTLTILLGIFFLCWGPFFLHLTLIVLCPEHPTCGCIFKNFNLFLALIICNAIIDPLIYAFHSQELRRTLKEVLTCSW

In the case of `CCCCCC1(c2ccccc2OC)CN(C(=O)[C@@H](Cc2ccc(OC)cc2)NC(=O)CCc2c[nH]cn2)C1`, the EC50 is 0.03 µM at Melanocortin receptor 4 and 0.06 µM in assay [1].

By EC50 is commonly meant the concentration at which the effect is half-maximal.
